Measured values as given in patent publication US20180325914A1, “INCREASING STORAGE OF VITAMIN A, VITAMIN D AND/OR LIPIDS” (Salk Institute for Biological Studies, priority 2014, published 2018).

System: primary HSCs
Conditions: Day_6_JQ1

## Cc1sc2c(c1C)C(c1ccc(Cl)cc1)=N[C@@H](CC(=O)OC(C)(C)C)c1nnc(C)n1-2 [JQ1, (S)-tert-butyl 2-(4-(4-chlorophenyl)-2,3,9-trimethyl-6H-thieno[3,2-f][1,2,4]triazolo[4,3-a][1,4]diazepin-6-yl)acetate]
  1110067D22Rik value_2: 7.6991
  9930013L23Rik value_2: 31.3095
  A430110N23Rik value_2: 1.529
  Acot11 value_2: 1.6538
  Acpl2 value_2: 7.205
  Adam8 value_2: 11.9385
  Adamts12 value_2: 17.1447
  Adcy1 value_2: 0.8092
  Adcy5 value_2: 0.9801
  Adcy7 value_2: 3.439
  Aif1l value_2: 1.208
  Akap5 value_2: 1.478
  Aldh1a2 value_2: 19.1605
  Aldh1l1 value_2: 1.536
  Aldh1l2 value_2: 7.698
  Ankrd55 value_2: 7.519
  Apbb1ip value_2: 18.5518
  Apbb1 value_2: 7.273
  Arhgef6 value_2: 2.025
  Arhgef25 value_2: 25.9937
  Arl5a value_2: 37.4802
  Arsb value_2: 16.7663
  Avpr1a value_2: 1.651
  B3galnt1 value_2: 2.653
  B4galt2 value_2: 15.1944
  Bag2 value_2: 14.4878
  Bdnf value_2: 4.6088
  Bnip3 value_2: 18.6877
  Boc value_2: 14.1708
  Cacng7 value_2: 2.276
  Casp12 value_2: 4
  Ccbe1 value_2: 26.2027
  Ccnd2 value_2: 143.49
  Ccng1 value_2: 163.356
  Cd276 value_2: 5.674
  Cdh11 value_2: 17.4722
  Celf2 value_2: 11.1573
  Cercam value_2: 9.775
  Chpf value_2: 51.0364
  Chst12 value_2: 44.2429
  Chsy3 value_2: 4.1726
  Cnrip1 value_2: 15.1406
  Col1a1 value_2: 830.694
  Col4a5 value_2: 36.069
  Col12a1 value_2: 37.8465
  Col16a1 value_2: 5.064
  Copz2 value_2: 47.0355
  Cplx2 value_2: 3.358
  Crispld2 value_2: 4.912
  Crlf1 value_2: 26.6612
  Csrp2 value_2: 137.115
  Cul7 value_2: 19.1665
  Cxx1c value_2: 13.5431
  D4Bwg0951e value_2: 30.19
  Ddah1 value_2: 10.4898
  Dhrs1 value_2: 30.0462
  Dmpk value_2: 26.4788
  Dnpep value_2: 41.0591
  Dpysl3 value_2: 14.2712
  Dynlrb1 value_2: 162.462
  Dzip1l value_2: 10.8578
  Emp2 value_2: 8.903
  Enpp5 value_2: 25.6268
  Ext1 value_2: 80.2965
  Extl3 value_2: 35.6167
  Fah value_2: 1.793
  Fam19a5 value_2: 1.344
  Fam20a value_2: 11.2001
  Fam38b value_2: 3.39
  Fam110c value_2: 13.4372
  Fam132a value_2: 4.331
  Fap value_2: 1.601
  Fbxw9 value_2: 14.3107
  Fkbp7 value_2: 40.2493
  Fmod value_2: 2.369
  Fndc1 value_2: 15.189
  Fndc4 value_2: 1.244
  Folr1 value_2: 1.905
  Foxc2 value_2: 1.453
  Foxf2 value_2: 1.6602
  Frzb value_2: 144.416
  Fstl3 value_2: 14.8692
  Fzd6 value_2: 2.328
  Gdf6 value_2: 25.9944
  Gm2a value_2: 22.5206
  Gm14420 value_2: 13.7546
  Gmpr value_2: 8.026
  Gpc1 value_2: 10.285
  Gpc4 value_2: 94.2819
  Gpr39 value_2: 22.0499
  Gpr133 value_2: 3.842
  Gpr180 value_2: 14.9448
  Gria4 value_2: 2.6
  Gys1 value_2: 11.4841
  Hk2 value_2: 9.851
  Hoxb2 value_2: 33.6747
  Hrct1 value_2: 3.228
  Hs6st2 value_2: 23.4423
  Hspb1 value_2: 104.396
  Hspg2 value_2: 105.328
  Igf2 value_2: 3.249
  Igfbp2 value_2: 2.5845
  Iglon5 value_2: 2.148
  Ikbip value_2: 68.3911
  Itga5 value_2: 44.6427
  Jub value_2: 23.4821
  Kank1 value_2: 15.8777
  Kazald1 value_2: 4.522
  Kcne4 value_2: 8.547
  Kdm5b value_2: 17.3352
  Kif21b value_2: 8.145
  Kif26b value_2: 3.17
  Klhl26 value_2: 25.6223
  Lclat1 value_2: 20.6695
  Lepre1 value_2: 61.4792
  Leprel1 value_2: 4.84
  Leprel2 value_2: 31.892
  Lgals1 value_2: 1464.5
  Lims2 value_2: 12.2591
  Lox13 value_2: 12.0376
  Loxl1 value_2: 78.0679
  Loxl2 value_2: 668.398
  Lrrn2 value_2: 1.8093
  Mageh1 value_2: 22.8542
  Man2b2 value_2: 26.9926
  Mpzl1 value_2: 88.2456
  Mrvi1 value_2: 2.602
  Myh10 value_2: 34.498
  Myh11 value_2: 6.328
  Myl6 value_2: 531.936
  Mylk value_2: 62.0714
  Myo1d value_2: 22.5024
  Myof value_2: 42.2087
  Ncam1 value_2: 8.073
  Ndrg2 value_2: 12.6911
  Nexn value_2: 6.343
  Nid2 value_2: 130.153
  Nts value_2: 3.21
  Numbl value_2: 22.4916
  Obsl1 value_2: 3.108
  P4ha1 value_2: 120.896
  Palld value_2: 17.5752
  Pcsk5 value_2: 4.88
  Pde1a value_2: 9.282
  Pdlim4 value_2: 4.7862
  Pfkfb4 value_2: 2.359
  Phlda3 value_2: 132.249
  Phldb2 value_2: 149.373
  Phyhd1 value_2: 3.552
  Pla2g15 value_2: 24.3031
  Plac8 value_2: 104.172
  Plekhg3 value_2: 18.1798
  Plp2 value_2: 16.6661
  Plscr2 value_2: 7.544
  Plscr4 value_2: 8.1813
  Pmepa1 value_2: 29.4329
  Pmm1 value_2: 54.8681
  Pmp22 value_2: 85.9788
  Podn value_2: 1.458
  Polr3k value_2: 22.8928
  Pon3 value_2: 19.5497
  Popdc2 value_2: 4.263
  Ppapdc1b value_2: 13.4067
  Ppp1r14a value_2: 20.201
  Pppde2 value_2: 20.4808
  Prdx2 value_2: 167.804
  Prickle1 value_2: 14.268
  Prrc1 value_2: 19.9334
  Psrc1 value_2: 6.874
  Pter value_2: 1.743
  Ptpla value_2: 12.4632
  Ptplad2 value_2: 8.106
  Pvrl2 value_2: 81.9103
  Pygl value_2: 3.275
  Rab7l1 value_2: 5.901
  Rab15 value_2: 1.498
  Rab34 value_2: 55.2701
  Rab3d value_2: 8.99
  Rftn2 value_2: 1.387
  Rhobtb3 value_2: 13.6471
  Rnft1 value_2: 17.8003
  Ror1 value_2: 6.1328
  Rprd1a value_2: 7.118
  Runx2 value_2: 3.741
  Ryk value_2: 55.3732
  S100a1 value_2: 70.3658
  Sardh value_2: 3.193
  Sat2 value_2: 5.26
  Sce1 value_2: 3.6703
  Selm value_2: 80.5867
  Sepx1 value_2: 93.1036
  Serpine2 value_2: 7.825
  Serpinh1 value_2: 1190.39
  Setd7 value_2: 32.7601
  Sfrp1 value_2: 33.2277
  Sgce value_2: 7.751
  Sh3gl3 value_2: 1.09
  Sh3kbp1 value_2: 10.1373
  Shisa3 value_2: 4.345
  Skp2 value_2: 4.997
  Slc2a10 value_2: 2.062
  Slc35a2 value_2: 23.1121
  Slc44a2 value_2: 59.6308
  Slit3 value_2: 39.3977
  Snai1 value_2: 35.4904
  Snta1 value_2: 25.2902
  Snx30 value_2: 13.1255
  Sparcl1 value_2: 5.629
  Speg value_2: 7.409
  Spp1 value_2: 226.746
  Srgap3 value_2: 1.389
  Srpx value_2: 2.6404
